The values below come from PMC8788354 (Journal of Enzyme Inhibition and Medicinal Chemistry, 2022).

In data set [1] the test system is SKBR-3 (human breast cancer cell line). The experiment in a line: cells. Format: cell-based. The settings on record: for IC50: Homo sapiens, SK-BR-3, 72 h, SRB assay, 72 h exposure, read-out: Anticancer activity IC50 (nM) ± SD, SKBR-3. In general terms: The SRB assay estimates cell density from bound dye.
The subject of data set [2] is SKOV-3 (ovarian cancer cell line). Nature of the data set: cells. Format: cell-based, human. Particulars: Homo sapiens, SK-OV-3; SRB assay, 72 h exposure; read-out: Anticancer activity IC50 (nM) ± SD, SKOV-3.
For data set [3], the system named is PC-3 (human prostate cancer cell line). Nature of the data set: cells. Format: cell-based. The settings on record: Homo sapiens; SRB assay, 72 h exposure; read-out: Anticancer activity IC50 (nM) ± SD, PC-3.
For data set [4], the system named is U-87MG cells (glioblastoma cell line). Nature of the data set: cells. The data set is classed as cell-based, human. Particulars: Homo sapiens, U-87 MG; SRB assay, 72 h exposure; read-out: Anticancer activity IC50 (nM) ± SD, U-87.
The nature of another data set: in vitro. Particulars: human, Toxicity IC50 (nM) ± SD, HDF, healthy cell line HDF, SRB assay, 72 h exposure.

As for `COc1cc2c(c(OC)c1OC)-c1ccc(OCc3ccc(/C=C/c4ccc5ccccc5c4)cc3)c(=O)cc1[C@@H](NC(C)=O)CC2` [Compound 8a], the IC50 (as a rule, the concentration needed to halve the response being measured) in data set [1] was found to be 6.3 ± 0.09 nM; in data set [2] it was 6.49 ± 0.25 nM; in data set [3] it was 6.03 ± 0.26 nM; in data set [4] it was 6.44 ± 0.07 nM; in the data set “in vitro”, 8.72 ± 0.48 nM.

For the compound `COc1cc2c(c(OC)c1OC)-c1ccc(OCc3cn(CCCNC4=C5C[C@@H](C)C[C@H](OC)[C@H](O)[C@@H](C)/C=C(\C)[C@H](OC(N)=O)[C@@H](OC)/C=C\C=C(/C)C(=O)NC(=CC4=O)C5=O)nn3)c(=O)cc1[C@@H](NC(C)=O)CC2` [Compound 6f], the 50% inhibitory concentration (IC50) in data set [1] is 17.4 ± 0.64 nM; in data set [2], 15.3 ± 0.31 nM; in data set [3] it was 17.84 ± 0.16 nM; in data set [4], 17.3 ± 0.35 nM; in the data set “in vitro”, 18 ± 0.24 nM.

With `CCOC(=O)COc1ccc2c(cc1=O)[C@@H](NC(C)=O)CCc1cc(OC)c(OC)c(OC)c1-2` [Compound 4g], the half-maximal inhibitory concentration (IC50) amounted to 1.28 ± 0.17 nM in data set [1]; 1.06 ± 0.22 nM in data set [2]; 1.15 ± 0.03 nM in data set [3]; 1.27 ± 0.01 nM in data set [4]; 2.05 ± 0.02 nM in “in vitro”.

Regarding `COc1cc2c(c(OC)c1OC)-c1ccc(OCc3cn(Cc4ccc([N+](=O)[O-])cc4)nn3)c(=O)cc1[C@@H](NC(C)=O)CC2` [Compound 6c], the IC50 in data set [1] was 2.88 ± 0.06 nM; in data set [2], 2.42 ± 0.11 nM; in data set [3], 2.05 ± 0.03 nM; in data set [4], 2.81 ± 0.18 nM; in the data set “in vitro”, 4.08 ± 0.26 nM.

Consider `COc1cc2c(c(OC)c1OC)-c1ccc(=O)c(OCc3ccccc3)cc1[C@@H](NC(C)=O)CC2` [Compound 3a], for which the half-maximal inhibitory concentration (IC50) in data set [1] stood at 2.04 ± 0.51 nM; in data set [2] it was 2.19 ± 0.07 nM; in data set [3] it was 2.27 ± 0.04 nM; in data set [4], 2.83 ± 0.06 nM; in the data set “in vitro”, 6.39 ± 1.04 nM. Further, in data set [1] (SI = IC50 HDF/IC50 SKBR-3), the “Selectivity index (SI), SKBR-3” value was approximately 3.

For the compound `COc1cc2c(c(OC)c1OC)-c1ccc(OCCCN=[N+]=[N-])c(=O)cc1[C@@H](NC(C)=O)CC2` [Compound 4i], the IC50 in data set [1] is 1.38 ± 0.03 nM; in data set [2] it was 1.37 ± 0.09 nM; in data set [3] it was 1.49 ± 0.16 nM; in data set [4], 1.19 ± 0.03 nM; in “in vitro”, 2.58 ± 0.12 nM.

As for `C=CCOc1cc2c(ccc1=O)-c1c(cc(OC)c(OC)c1OC)CC[C@@H]2NC(C)=O` [Compound 3d], the IC50 in data set [1] turned out to be 1.09 ± 0.01 nM; in data set [2], 1.68 ± 0.09 nM; in data set [3] it was 1.05 ± 0.01 nM; in data set [4], 1.63 ± 0.04 nM; in “in vitro”, 2.83 ± 0.05 nM.

Take `COc1cc2c(c(OC)c1OC)-c1ccc(OCc3cn(C4CC(n5cc(C)c(=O)[nH]c5=O)OC4CO)nn3)c(=O)cc1C(NC(C)=O)CC2` (stereo not shown) [Compound 6e]: the IC50 in data set [1] stood at 3.02 ± 0.31 nM; in data set [2] it was 3.33 ± 0.11 nM; in data set [3] it was 3.5 ± 0.49 nM; in data set [4] it was 3.84 ± 0.02 nM; in “in vitro”, 5.18 ± 0.18 nM.

Take `C#CCOc1ccc2c(cc1=O)[C@@H](NC(C)=O)CCc1cc(OC)c(OC)c(OC)c1-2` [Compound 4f]: the IC50 in data set [1] was determined as 1.48 ± 0.09 nM; in data set [2] it was 1.52 ± 0.02 nM; in data set [3], 1.46 ± 0.13 nM; in data set [4], 1.06 ± 0.04 nM; in “in vitro” it was 1.85 ± 0.03 nM.

As for `COc1cc2c(c(OC)c1OC)-c1ccc(=O)c(OCc3ccc(I)cc3)cc1[C@@H](NC(C)=O)CC2` [Compound 3b], the IC50 is 2.55 ± 0.12 nM in data set [1]; 2.13 ± 0.4 nM in data set [2]; 2.94 ± 0.08 nM in data set [3]; 2.47 ± 0.91 nM in data set [4]; 3.94 ± 0.27 nM in the data set “in vitro”.

For `COc1cc2c(c(OC)c1OC)-c1ccc(OCc3cn(Cc4ccccc4)nn3)c(=O)cc1[C@@H](NC(C)=O)CC2` [Compound 6a], the IC50 in data set [1] amounted to 2.33 ± 0.09 nM; in data set [2] it was 2.79 ± 0.07 nM; in data set [3], 2.04 ± 0.44 nM; in data set [4] it was 2.78 ± 0.05 nM; in the data set “in vitro”, 3.88 ± 0.14 nM.

In the case of `C=CCCOc1cc2c(ccc1=O)-c1c(cc(OC)c(OC)c1OC)CC[C@@H]2NC(C)=O` [Compound 3h], the 50% inhibitory concentration (IC50) in data set [1] came out at 1.04 ± 0.33 nM; in data set [2], 1.99 ± 0.07 nM; in data set [3] it was 1.53 ± 0.21 nM; in data set [4] it was 1.06 ± 0.03 nM; in “in vitro”, 1.84 ± 0.11 nM.
